# Measured values: paper PMC3990583 (PLoS ONE, 2014)
# Assays:
# [1] = tested on: CK2-mediated phosphorylation of AKT at S129; assay: Western blot of AKT(S129) phosphorylation (CK2-specific site) in 293T cells; format: cell-based, human; conditions: 12 hours
# recombinant human SRPK2 = recombinant human SRPK2 (Homo sapiens, UniProt P78362); assay: In vitro kinase assay (Life Technologies), SRPK2; format: biochemical; conditions: two independent assays
# [2] = target: Clks (Clk1, Clk2, and Clk3); assay: In vitro kinase assays, Clk family as a whole; format: biochemical, human; conditions: range over Clk1, Clk2, Clk3; read-out: IC50 on Clks (all three Clks, Clk1-3)
# HepG2 cells = assay: Quantitative real-time PCR of gluconeogenic genes in HepG2 cells; conditions: 12 hours
# Huh7 cells = assay: RT-PCR of Bcl-X and RON alternative splicing in Huh7 cells; format: cell-based, human; conditions: 12 hours
# Experimental: (§1) To analyze the effect of compounds on pre-mRNA splicing, 293T, Huh7, and HepG2 cells were treated with the indicated concentrations. Total RNAs were extracted using the TRIzol reagent (Invitrogen) followed by cDNA synthesis using the Omniscript RT kit (Qiagen) and an oligo-dT primer. PCR was performed at 95°C for 30 s, 55°C for 30 s, and 72°C for 1 min for 35 cycles using GoTaq Green Master Mix (Promega). Quantitative real-time PCR analysis was performed using the BioRad IQ SYBR Green Supermix. All gene expression experiments were performed independently at least twice.
# 293T cells [3] = assay: RT-PCR analysis of alternative pre-mRNA splicing in 293T cells; format: cell-based, human
# Experimental: Cells (293T, Huh7, and HepG2) were cultured in Dulbecco's modified Eagle's medium (DMEM) containing 10% fetal bovine serum (FBS; Hyclone) supplemented with 1% penicillin and streptomycin. […] The 293T cells were transfected in 6-well plates with siRNAs (Bioneer) at a final concentration of 100 nM using Lipofectamine RNAiMax (Invitrogen) according to the manufacturer's instructions.
# as §1
# (§2) The cDNA was synthesized and further processed for exon array as described in Materials and Methods. All experiments were performed three times, and representative heat maps of selected transcripts from the exon arrays are shown. Selected exons for each mRNA are highlighted with black underlines. (B) RT-PCR analysis was performed for the ELL2, SPAST, QRSL1, PRPSAP2, CPEB1, USP38, TRIP4, CTDSPL2, WDFY1 and ZCCHC2 genes with the same RNA used for the exon arrays. The exonic structure of the RT-PCR products and the exonic location of PCR primers are indicated with tandem rectangles and arrowheads, respectively. PCR products were quantified using ImageJ software, and the ratios of skipped product (skipped/total PCR product) were calculated.
# Total levels of AKT were also monitored as a control. hnRNP A1 was used as a loading control. (B) Alternatively spliced CK2 α′, ELL2, CPEB1, PRPSAP2, and QRSL1 mRNAs were examined by RT-PCR. PCR products of normal and alternatively spliced isoforms are denoted by black arrowheads. An extra PCR product of the QRSL1 gene appeared in TBB-treated samples and is denoted by an asterisk. All experiments were performed twice, and representative data for each are presented.
# [4] = tested on: SR protein phosphorylation; assay: Western blot of phosphorylated SR proteins (mAb 1H4) in 293T cells; format: cell-based, human; conditions: for alteration of SR protein phosphorylation: 100 µM, 12 hour, Figure S5
# recombinant human Clk3 = recombinant human Clk3 (Homo sapiens, UniProt P49761); assay: In vitro kinase assay (Life Technologies), Clk3; format: biochemical
# SRPKs (SRPK1 and SRPK2) = assay: In vitro kinase assays, SRPK family as a whole; format: biochemical, human
# 293T cells [5] = assay: Quantitative real-time PCR of CK2 α′ mRNA levels in 293T cells; format: cell-based, human; conditions: qPCR, primers to exon 7, Figure S1
# Experimental: as §1
# Figure S1. […] Quantitative real-time PCR was performed with total RNA from DMSO- and CX-4945-treated 293T cells. The amount of normal CK2 α’ mRNA was measured using primers corresponding to exon 6, and the total amount of normal CK2 α’ mRNA and the smaller-sized CK2 α’ mRNA was measured using primers corresponding to exon 7. The values for DMSO-treated samples were set to 1, and the relative amounts were calculated. The average and SD values were determined from three independent experiments.
# Clks = assay: In vitro kinase assays (Millipore), CX-4945 compared with TG-003 on Clks; format: biochemical, human; conditions: Figure S6
# Experimental: All experiments were performed twice.
# 293T cells [6] = assay: Affymetrix exon array, transcriptome-wide splicing in 293T cells; format: cell-based, human; conditions: 10 µM, 12 hours
# Experimental: The fragmented and end-labeled single-stranded cDNAs were prepared and hybridized to Affymetrix-GeneChip Human Exon 1.0 ST arrays (Affymetrix). Affymetrix Expression Console Software was used to perform quality assessment. Affymetrix exon array data was analyzed using GeneSpring 12.6 inclusive of GX (Agilent Technologies). Three independent experimental samples were examined.
# Transcriptome analysis with the Affymetrix GeneChip Human Exon 1.0 ST Array, which contains multiple probes per exon, allowed us to search for variations at the exon level. […] Further analysis characterized the 8,968 affected exons into 1,555 included exons and 7,413 skipped exons. To validate this observation, we randomly chose 15 exons from those affected by more than 2-fold and examined alterations in alternative splicing using RT-PCR of the same total RNAs used in the exon array experiments. Representative mRNAs containing selected exons are illustrated by heat maps, and all of the selected exons were denoted by black underlines (Figure 2A). […] Different exons are commonly affected differentially by a stimulus or splicing inhibition, depending on cis-acting elements on exon/intron and activities of trans-acting factors.
# as §2
# recombinant human SRPK1 = recombinant human SRPK1 (Homo sapiens, UniProt Q96SB4); assay: In vitro kinase assay (Life Technologies), SRPK1; format: biochemical; conditions: two independent assays
# [7] = tested on: Clk1 and Clk4 over Clk2 and Clk3; design: method as in PMID 15010457; conditions: cited from earlier work
# Chain of recombinant human SRPK2 (P78362 whole entry): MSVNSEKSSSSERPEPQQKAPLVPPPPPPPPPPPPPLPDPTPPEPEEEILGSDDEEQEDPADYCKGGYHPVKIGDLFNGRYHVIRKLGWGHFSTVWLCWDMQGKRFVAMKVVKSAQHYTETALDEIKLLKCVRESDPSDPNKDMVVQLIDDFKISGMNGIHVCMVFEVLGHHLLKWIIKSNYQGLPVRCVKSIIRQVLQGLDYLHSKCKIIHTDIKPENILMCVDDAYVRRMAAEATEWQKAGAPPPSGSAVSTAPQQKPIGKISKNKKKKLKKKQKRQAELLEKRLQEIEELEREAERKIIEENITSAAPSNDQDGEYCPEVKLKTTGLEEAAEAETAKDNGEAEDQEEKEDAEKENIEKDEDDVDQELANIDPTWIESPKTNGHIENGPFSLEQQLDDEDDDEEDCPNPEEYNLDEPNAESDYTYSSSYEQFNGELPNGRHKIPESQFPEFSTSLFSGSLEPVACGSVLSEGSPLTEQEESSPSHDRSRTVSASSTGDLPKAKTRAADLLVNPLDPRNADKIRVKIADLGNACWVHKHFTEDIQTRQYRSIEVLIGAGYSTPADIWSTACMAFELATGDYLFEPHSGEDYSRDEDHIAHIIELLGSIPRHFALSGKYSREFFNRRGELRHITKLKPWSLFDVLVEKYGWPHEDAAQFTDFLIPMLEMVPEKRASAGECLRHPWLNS
# Chain of recombinant human SRPK1 (Q96SB4 whole entry): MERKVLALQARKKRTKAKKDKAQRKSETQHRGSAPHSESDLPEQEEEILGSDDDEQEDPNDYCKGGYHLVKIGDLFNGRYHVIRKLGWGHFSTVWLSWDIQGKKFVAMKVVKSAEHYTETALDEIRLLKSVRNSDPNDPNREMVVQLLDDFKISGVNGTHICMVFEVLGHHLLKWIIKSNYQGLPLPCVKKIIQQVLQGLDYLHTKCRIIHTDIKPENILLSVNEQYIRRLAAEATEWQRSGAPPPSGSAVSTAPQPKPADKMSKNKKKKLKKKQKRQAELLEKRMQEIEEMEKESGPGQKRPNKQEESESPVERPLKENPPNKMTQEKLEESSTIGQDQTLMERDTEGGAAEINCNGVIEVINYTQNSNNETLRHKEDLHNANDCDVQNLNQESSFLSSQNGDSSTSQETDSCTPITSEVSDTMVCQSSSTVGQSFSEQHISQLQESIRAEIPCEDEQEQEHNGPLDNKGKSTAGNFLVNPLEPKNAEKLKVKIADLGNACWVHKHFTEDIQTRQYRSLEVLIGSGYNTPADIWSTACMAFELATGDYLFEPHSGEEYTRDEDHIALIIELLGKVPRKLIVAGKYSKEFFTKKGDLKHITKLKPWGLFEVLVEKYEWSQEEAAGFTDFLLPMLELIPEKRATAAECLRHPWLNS
# Chain of recombinant human Clk3 (P49761 whole entry): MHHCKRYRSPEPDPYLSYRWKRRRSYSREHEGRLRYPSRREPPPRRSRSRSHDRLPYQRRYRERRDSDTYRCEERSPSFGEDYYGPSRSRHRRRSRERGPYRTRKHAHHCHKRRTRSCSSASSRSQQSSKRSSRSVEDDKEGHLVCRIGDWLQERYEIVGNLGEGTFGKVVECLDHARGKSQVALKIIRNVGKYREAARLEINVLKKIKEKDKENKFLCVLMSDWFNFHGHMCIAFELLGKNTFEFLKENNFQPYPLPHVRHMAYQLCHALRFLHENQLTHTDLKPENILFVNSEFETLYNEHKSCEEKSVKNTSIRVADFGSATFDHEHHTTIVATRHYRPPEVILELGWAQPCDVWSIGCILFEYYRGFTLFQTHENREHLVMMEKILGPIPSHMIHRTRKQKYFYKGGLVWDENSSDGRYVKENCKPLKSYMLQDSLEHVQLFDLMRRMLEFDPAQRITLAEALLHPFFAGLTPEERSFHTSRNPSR
smiles,measurement,setting,value
O=C(O)c1ccc2c(c1)nc(Nc1cccc(Cl)c1)c1ccncc12 [CX-4945],CK2-mediated phosphorylation of AKT at S129,[1]; 10 µM,efficiently blocked
same,IC50,recombinant human SRPK2,1110 nM
same,IC50,[2],3 to 90 nM
same,G6Pase and PEPCK gene expression,HepG2 cells,induced
same,normal alternative splicing of Bcl-X and RON pre-mRNAs,Huh7 cells,alteration of normal alternative splicing
same,amount of PCR product corresponding to normal CK2 α′,"293T cells [3]; 10 µM, 12 hours, compared with DMSO",reduced
same,splicing of Clk1/Sty pre-mRNA,"293T cells [3]; 12 hours, 293T",changes in splicing
same,time of appearance of new product CK2 α′△ (exon6-skipped),"293T cells [3]; time course following exposure, 293T",as early as 2 or 3
same,regulatory efficacy on SR protein phosphorylation compared with TG-003,"[4]; 1 µM CX-4945 versus 10 µM TG-003, 1 hour",stronger than that of TG-003
same,"levels of phosphorylated SRSF4, SRSF6, SRSF5, and SRSF1","[4]; 1 and 10 µM, 1 hour",considerably decreased
same,phosphorylation of SRSF3,"[4]; 1 and 10 µM, 1 hour",not affected
same,upper band of phospho-SRSF6 (hyperphosphorylated SRSF6),"[4]; 1 and 10 µM, 1 hour",dramatically increased
same,dose dependence of effect on phosphorylation of SR proteins,"[4]; 1 versus 10 µM, 1 hour",dose-dependent
same,IC50,recombinant human Clk3,90 nM
same,IC50,SRPKs (SRPK1 and SRPK2),> 1000 nM
same,total amount of normal CK2 α′ and smaller-sized CK2 α′ mRNA,293T cells [5],not altered
same,overall efficacies on Clks compared with TG-003,Clks,much stronger than those of TG-003
same,included exons among the affected exons,293T cells [6],"1,555 exons"
same,skipped exons among the affected exons,293T cells [6],"7,413 exons"
same,genes affected at the whole-transcript level,"293T cells [6]; 82 out of 18,673 genes",0.44%
same,IC50,recombinant human SRPK1,1230 nM
"O=C(O)/C=C/c1cc(Br)c(Br)c(Br)c1Br [TBCA, tetrabromocinnamic acid]",CK2-mediated phosphorylation of AKT at S129,[1]; 100 µM,efficiently blocked
same,"changes in alternative splicing of selected genes (CK2 α′, ELL2, CPEB1, PRPSAP2, QRSL1)","293T cells [3]; 100 µM, 12 hours",negligible effect
same,alteration of SR protein phosphorylation,[4],did not induce the alteration
"Brc1c(Br)c(Br)c2[nH]nnc2c1Br [TBB, 4,5,6,7-tetrabromobenzotriazole]",CK2-mediated phosphorylation of AKT at S129,[1]; 100 µM,efficiently blocked
same,"changes in alternative splicing of selected genes (CK2 α′, ELL2, CPEB1, PRPSAP2, QRSL1)","293T cells [3]; 100 µM, 12 hours",negligible effect
same,"extra PCR product of QRSL1 (cryptic splicing, 3′ part of exon 11)","293T cells [3]; 100 µM, 12 hours",induced the appearance of an additional PCR product
same,alteration of SR protein phosphorylation,[4],did not induce the alteration
CCN1/C(=C/C(C)=O)Sc2ccc(OC)cc21 [TG-003],preferential efficacy on Clk1 and Clk4 over Clk2 and Clk3,[7],at least 5 fold
